# Several values for one entry are separate records, joined by “and”; a condition that tells them apart may be missing. Identical values can stand only once. Toxic doses and inconclusive results are not listed.
# System: L1210 leukemia ip in BDF1 mice, survival T/C
# Experiment: NCI In Vivo Anticancer Drug Screen. Data for tumor model L1210 Leukemia (intraperitoneal) in B6D2F1 (BDF1) mice
# Details: endpoint: mean survival time, higher = longer survival
# Outline: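 Value reflects the ratio of survival in compound-treated mice to survival in vehicle-treated controls, with both groups carrying the same transplanted tumor.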
# [1] = dose: 25.0 mg/kg/injection, schedule: Q01DX009 (ip), vehicle: saline with Tween-80
# [2] = dose: 25.0 mg/kg/injection, schedule: Q04DX003 (ip), vehicle: saline with Tween-80
# [3] = dose: 50.0 mg/kg/injection, schedule: Q04DX003 (ip), vehicle: saline with Tween-80
# [4] = dose: 100.0 mg/kg/injection, schedule: Q01DX001 (ip), vehicle: carboxymethylcellulose (CMC)
# [5] = dose: 200.0 mg/kg/injection, schedule: Q01DX001 (ip), vehicle: carboxymethylcellulose (CMC)
# [6] = dose: 400.0 mg/kg/injection, schedule: Q01DX001 (ip), vehicle: carboxymethylcellulose (CMC)
# [7] = dose: 100.0 mg/kg/injection, schedule: Q04DX002 (ip), vehicle: saline with Tween-80
# [8] = dose: 200.0 mg/kg/injection, schedule: Q04DX002 (ip), vehicle: saline with Tween-80
# [9] = dose: 400.0 mg/kg/injection, schedule: Q04DX002 (ip), vehicle: saline with Tween-80
# [10] = dose: 100.0 mg/kg/injection, schedule: Q04DX003 (ip), vehicle: saline
# [11] = dose: 200.0 mg/kg/injection, schedule: Q04DX003 (ip), vehicle: saline
# [12] = dose: 100.0 mg/kg/injection, schedule: Q04DX002 (ip), vehicle: Klucel (hydroxypropylcellulose) (HPC)
# [13] = dose: 200.0 mg/kg/injection, schedule: Q04DX002 (ip), vehicle: Klucel (hydroxypropylcellulose) (HPC)
# [14] = dose: 400.0 mg/kg/injection, schedule: Q04DX002 (ip), vehicle: Klucel (hydroxypropylcellulose) (HPC)
# [15] = dose: 50.0 mg/kg/injection, schedule: Q01DX001 (ip), vehicle: saline
# [16] = dose: 100.0 mg/kg/injection, schedule: Q01DX001 (ip), vehicle: saline
# [17] = dose: 200.0 mg/kg/injection, schedule: Q01DX001 (ip), vehicle: saline
# [18] = dose: 400.0 mg/kg/injection, schedule: Q01DX001 (ip), vehicle: saline
# [19] = dose: 400.0 mg/kg/injection, schedule: Q04DX003 (ip), vehicle: saline
# [20] = dose: 100.0 mg/kg/injection, schedule: Q04DX003 (ip), vehicle: saline with Tween-80
# [21] = dose: 200.0 mg/kg/injection, schedule: Q04DX003 (ip), vehicle: saline with Tween-80
# [22] = dose: 400.0 mg/kg/injection, schedule: Q04DX003 (ip), vehicle: saline with Tween-80
# [23] = dose: 100.0 mg/kg/injection, schedule: Q04DX003 (ip), vehicle: Klucel (hydroxypropylcellulose) (HPC)
# [24] = dose: 25.0 mg/kg/injection, schedule: Q01DX009 (ip), vehicle: saline
# [25] = dose: 50.0 mg/kg/injection, schedule: Q01DX009 (ip), vehicle: saline
# [26] = dose: 100.0 mg/kg/injection, schedule: Q01DX009 (ip), vehicle: saline with Tween-80
compound,measurement,setting,value
O=C(COc1ccc(Cl)cc1C(=O)O)NCc1ccc(Cl)cc1,T/C,"dose: 100.0 mg/kg/injection, schedule: Q01DX009 (ip), vehicle: gum acacia",92 % of control
same,T/C,"dose: 200.0 mg/kg/injection, schedule: Q01DX009 (ip), vehicle: gum acacia",106 % of control
same,T/C,"dose: 400.0 mg/kg/injection, schedule: Q01DX009 (ip), vehicle: gum acacia",92 % of control
O=C(C=C(C(F)(F)F)C(F)(F)F)c1ccc(Cl)c2ccccc12,T/C,"dose: 12.5 mg/kg/injection, schedule: Q01DX009 (ip), vehicle: saline with Tween-80",94 % of control
same,T/C,[1],92 % of control
same,T/C,[2],107 % of control
same,T/C,[3],90 % of control
CC(C)CC(=O)C=C(C(F)(F)F)C(F)(F)F,T/C,"dose: 100.0 mg/kg/injection, schedule: Q01DX001 (ip), vehicle: saline with Tween-80",91 % of control
same,T/C,"dose: 200.0 mg/kg/injection, schedule: Q01DX001 (ip), vehicle: saline with Tween-80",96 % of control
same,T/C,"dose: 400.0 mg/kg/injection, schedule: Q01DX001 (ip), vehicle: saline with Tween-80",93 % of control
C=CCSc1ccccc1C(=O)O,T/C,"dose: 50.0 mg/kg/injection, schedule: Q01DX001 (ip), vehicle: carboxymethylcellulose (CMC)",122 % of control
same,T/C,[4],95 % of control
same,T/C,[5],106 % of control
same,T/C,[6],106 % of control
CCOc1ccccc1/C=C1N=C(/C=C/c2ccccc2)OC\1=O,T/C,[7],92 % of control
same,T/C,[8],89 % of control
same,T/C,[9],97 % of control
C=CC[n+]1ccccc1Br,T/C,"dose: 62.0 mg/kg/injection, schedule: Q01DX015 (ip), vehicle: water",102 % of control
same,T/C,"dose: 125.0 mg/kg/injection, schedule: Q01DX015 (ip), vehicle: water",106 % of control
CCC[N+](C)(C)CCOC(=O)C1C2CC3OC(=O)C1C3C2 (stereo not given),T/C,[10],97 % of control
same,T/C,[11],95 % of control
CCCCCCCCC(SC#N)C(CCCCCCCC(=O)O)SC#N (stereo not given),T/C,[12],100 % of control
same,T/C,[13],95 % of control
same,T/C,[14],106 % of control
c1ccc(CCN2CCCCC2)nc1,T/C,"dose: 1.56 mg/kg/injection, schedule: Q01DX009 (ip), vehicle: saline",94 % of control
same,T/C,"dose: 3.13 mg/kg/injection, schedule: Q01DX009 (ip), vehicle: saline",93 % of control
same,T/C,"dose: 6.25 mg/kg/injection, schedule: Q01DX009 (ip), vehicle: saline",89 % of control
CCSC(SCC)C(C)=O,T/C,[15],92 % of control
same,T/C,[16],108 % of control
same,T/C,[17],94 % of control
same,T/C,[18],89 % of control
CC(C)CC(CC(C)C)NCC(C)OC(=O)C(c1ccccc1)c1ccccc1 (stereo not given),T/C,"dose: 75.0 mg/kg/injection, schedule: Q01DX001 (ip), vehicle: saline",102 % of control
same,T/C,"dose: 150.0 mg/kg/injection, schedule: Q01DX001 (ip), vehicle: saline",98 % of control
same,T/C,"dose: 300.0 mg/kg/injection, schedule: Q01DX001 (ip), vehicle: saline",102 % of control
O=C(O)C1CCCS1(=O)=O (stereo not given),T/C,[10],96 % of control
same,T/C,[11],94 % of control
same,T/C,[19],88 % of control
CC(C(=O)O)N(C)C(=O)OCc1ccccc1 (stereo not given),T/C,"dose: 100.0 mg/kg/injection, schedule: Q01DX001 (ip), vehicle: acetone",103 % of control
same,T/C,[10],105 % of control
same,T/C,"dose: 200.0 mg/kg/injection, schedule: Q01DX001 (ip), vehicle: acetone",101 % of control
same,T/C,[11],90 % of control
same,T/C,"dose: 400.0 mg/kg/injection, schedule: Q01DX001 (ip), vehicle: acetone",96 % of control
same,T/C,[19],92 % of control
O=C1N/C(=N\OCc2ccccc2)CC(NOCc2ccccc2)N1 (stereo not given),T/C,[20],101 % of control
same,T/C,[21],97 % of control
same,T/C,[22],97 % of control
O=C(CCCC(=O)N/N=C/c1ccc(Cl)cc1Cl)N/N=C\c1ccc(Cl)cc1Cl,T/C,[15],97 % of control
same,T/C,[16],97 % of control
same,T/C,[17],93 % of control
same,T/C,[18],97 % of control
CC1CCC(C(C)C)C(NCc2ccccc2O)C1 (stereo not given),T/C,[23],89 % of control
Cc1cccc(NC(=S)/C(=C(/[O-])c2ccccc2)[n+]2ccc3ccccc3c2)c1,T/C,[7],98 % of control
same,T/C,[8],98 % of control
same,T/C,[9],91 % of control
CS(=O)(=O)OCCNC[C@@H](O)[C@@H](O)CNCCOS(C)(=O)=O,T/C,"dose: 0.8 mg/kg/injection, schedule: Q01DX001 (ip), vehicle: saline",101 % of control
same,T/C,"dose: 1.4 mg/kg/injection, schedule: Q01DX001 (ip), vehicle: saline",112 % of control and 121 % of control
same,T/C,"dose: 2.3 mg/kg/injection, schedule: Q01DX001 (ip), vehicle: saline",112 % of control and 123 % of control
same,T/C,"dose: 6.5 mg/kg/injection, schedule: Q01DX001 (ip), vehicle: saline",122 % of control
same,T/C,"dose: 18.0 mg/kg/injection, schedule: Q01DX001 (ip), vehicle: saline",161 % of control
same,T/C,"dose: 30.0 mg/kg/injection, schedule: Q01DX001 (ip), vehicle: saline",151 % of control and 186 % of control
same,T/C,[15],207 % of control
same,T/C,[16],108 % of control
OCCCCc1nccc2c1[nH]c1ccccc12,T/C,[24],93 % of control
same,T/C,[25],88 % of control
same,T/C,[4],86 % of control
same,T/C,[5],93 % of control
same,T/C,[6],98 % of control
NOCc1nnc(Nc2ccccc2)s1,T/C,[26],92 % of control
same,T/C,"dose: 200.0 mg/kg/injection, schedule: Q01DX009 (ip), vehicle: saline with Tween-80",90 % of control
COCCOC(=O)CCCCC(=O)OCCOC,T/C,[10],107 % of control
same,T/C,[11],100 % of control
same,T/C,[19],94 % of control
Cc1cc(=O)oc2cc(O)ccc12,T/C,[23],100 % of control
same,T/C,"dose: 200.0 mg/kg/injection, schedule: Q04DX003 (ip), vehicle: Klucel (hydroxypropylcellulose) (HPC)",98 % of control
NC1=CC(=O)C(=O)c2cccnc21,T/C,"dose: 75.0 mg/kg/injection, schedule: Q01DX001 (ip), vehicle: other",92 % of control
O=CC(=O)c1ccccc1,T/C,[1],100 % of control
same,T/C,[24],101 % of control
same,T/C,"dose: 50.0 mg/kg/injection, schedule: Q01DX009 (ip), vehicle: saline with Tween-80",105 % of control
same,T/C,[25],104 % of control
same,T/C,"dose: 75.0 mg/kg/injection, schedule: Q01DX009 (ip), vehicle: saline with Tween-80",98 % of control
same,T/C,[26],107 % of control
COC(CBr)OC,T/C,"dose: 10.0 mg/kg/injection, schedule: Q01DX009 (ip), vehicle: saline",95 % of control
same,T/C,"dose: 10.0 mg/kg/injection, schedule: Q04DX003 (ip), vehicle: saline",98 % of control
same,T/C,"dose: 20.0 mg/kg/injection, schedule: Q01DX009 (ip), vehicle: saline",95 % of control
same,T/C,"dose: 20.0 mg/kg/injection, schedule: Q04DX003 (ip), vehicle: saline",101 % of control
same,T/C,[2],98 % of control
same,T/C,"dose: 40.0 mg/kg/injection, schedule: Q01DX009 (ip), vehicle: saline",104 % of control
same,T/C,"dose: 40.0 mg/kg/injection, schedule: Q04DX003 (ip), vehicle: saline",108 % of control
same,T/C,[3],98 % of control
COC(=O)c1ccccc1N=NNc1ccc(C(F)(F)F)c([N+](=O)[O-])c1,T/C,[20],98 % of control
same,T/C,[21],103 % of control
same,T/C,[22],88 % of control
CCOC(=O)c1c(/N=C/c2ccc(N(C)C)cc2)sc2c1CCCC2,T/C,[12],107 % of control
same,T/C,[13],100 % of control
same,T/C,[14],104 % of control

# From PubChem BioAssay AID248 (DTP/NCI, 2004)
